Measured values as given in US5705487A, “Antithrombotic agents” (priority 1995, dated 1998).
Structures can show the parent of a compound that is named as a salt.

What was measured:
Assay type in all cases: biochemical
Human Thrombin = Human Thrombin (Homo sapiens, UniProt P00734); assay: Inhibition of the amidase activity of thrombin (Kass); details: chromogenic substrate N-benzoyl-Phe-Val-Arg-p-nitroanilide; mean over range of concentrations
Bovine trypsin = molecular target: T1, Bovine trypsin (Bos taurus, UniProt P00760); assay: Kass, trypsin chromogenic substrate assay; details: substrate N-Benzoyl-Phe-Val-Arg-p-nitroanilide
T1 construct: Bovine trypsin is purchased from Worthington Biochemicals; purchased Worthington Biochemicals, Freehold, N.J
T1 sequence (P00760 24-246): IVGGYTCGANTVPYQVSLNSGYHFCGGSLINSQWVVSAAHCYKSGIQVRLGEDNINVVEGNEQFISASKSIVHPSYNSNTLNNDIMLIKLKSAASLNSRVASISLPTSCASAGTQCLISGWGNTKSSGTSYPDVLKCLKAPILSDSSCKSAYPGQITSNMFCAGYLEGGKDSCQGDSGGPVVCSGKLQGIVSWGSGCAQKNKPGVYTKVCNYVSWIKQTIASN

Human Plasma [1] = assay: Human plasma anticoagulation, thrombin time (TT); details: concentration required to double the clotting time
Procedure: (§1) Dog plasma and rat plasma is obtained from conscious mixed-breed hounds (either sex, Hazelton-LRE, Kalamazoo, Mich., U.S.A.) or from anesthetized male Sprague-Dawley rats (Harlan Sprague-Dawley, Inc., Indianapolis, Ind., U.S.A.) by venipuncture into 3.8 percent citrate. Fibrinogen is prepared from in-date ACD human blood as the fraction I-2 according to previous procedures and specifications. […] Human fibrinogen is also purchased as 98 percent pure/plasmin free from American Diagnostica, Greenwich, Conn. Coagulation reagents ACTIN, Thromboplastin, and Human plasma are from Baxter Healthcare Corp., Dade Division, Miami, Fla. Bovine thrombin from Parke-Davis ([…], Mich.) is used for coagulation assays in plasma.
(§2) Coagulation assay procedures are as previously described. […] A CoAScreener coagulation instrument (American LABor, Inc.) is used for all coagulation assay measurements. The prothrombin time (PT) is measured by adding 0.05 mL saline and 0.05 mL Thromboplastin-C reagent to 0.05 mL test plasma. The activated partial thromboplastin time (APTT) is measured by incubation of 0.05 mL test plasma with 0.05 mL Actin reagent for 120 seconds followed by 0.05 mL CaCl2 (0.02M). The thrombin time (TT) is measured by adding 0.05 mL saline and 0.05 mL thrombin (10 NIH units/mL) to 0.05 mL test plasma. The compounds of Formula I are added to human or animal plasma over a wide range of concentrations to determine prolongation effects on the APTT, PT, and TT assays. Linear extrapolations are performed to estimate the concentrations required to double the clotting time for each assay.

Human Plasma [2] = assay: Human plasma anticoagulation, activated partial thromboplastin time (APTT); details: concentration required to double the clotting time
Procedure: as §1, §2

Human Plasma [3] = assay: Human plasma anticoagulation, prothrombin time (PT); details: concentration required to double the clotting time
Procedure: as §1, §2

## Cl.N=C(N)N1CC=C(CNC(=O)[C@@H]2CCCN2C(=O)[C@@H](CC2CCCCC2)NCC(=O)O)CC1 [Example 70, HO2 CCH2 -D-Cha-Pro-4-NHCH2 -1-amidino-3,4-dehydro-piperidine.HCl]
Human Thrombin
  Kass × 10^6 (L/mole) Human Thrombin: 430 × 10^6 L/mole
Bovine trypsin
  Kass × 10^6 (L/mole) Trypsin: 9.8 × 10^6 L/mole
Human Plasma [1]
  Human Plasma Anticoagulation 2x Clotting time TT: 2 ng/mL
Human Plasma [2]
  Human Plasma Anticoagulation 2x Clotting time APTT: 160 ng/mL
Human Plasma [3]
  Human Plasma Anticoagulation 2x Clotting time PT: 180 ng/mL

## N=C(N)c1ccc(CNC(=O)[C@@H]2CCCN2C(=O)[C@@H](CC2CCCCC2)NCCCC(=O)O)cc1 [Example 85, HOOCCH2 CH2 CH2 -D-Cha-Pro-p-NHCH2 C6 H4 C(NH)NH2.HCl]
Human Thrombin
  Kass × 10^6 (L/mole) Human Thrombin: 265 × 10^6 L/mole
Bovine trypsin
  Kass × 10^6 (L/mole) Trypsin: 30.8 × 10^6 L/mole
Human Plasma [1]
  Human Plasma Anticoagulation 2x Clotting time TT: 4.9 ng/mL
Human Plasma [2]
  Human Plasma Anticoagulation 2x Clotting time APTT: 100 ng/mL
Human Plasma [3]
  Human Plasma Anticoagulation 2x Clotting time PT: 197 ng/mL

## NCc1ccc(CNC(=O)[C@@H]2CCCN2C(=O)[C@@H](CC2CCCCC2)NCC(=O)O)cc1 [Example 78, HO2 CCH2 -D-Cha-Pro-4-NHCH2 C6 H4 CH2 NH2.HCl]
Human Thrombin
  Kass × 10^6 (L/mole) Human Thrombin: 11 × 10^6 L/mole
Bovine trypsin
  Kass × 10^6 (L/mole) Trypsin: 8.6 × 10^6 L/mole
Human Plasma [1]
  Human Plasma Anticoagulation 2x Clotting time TT: 46 ng/mL
Human Plasma [2]
  Human Plasma Anticoagulation 2x Clotting time APTT: 430 ng/mL
Human Plasma [3]
  Human Plasma Anticoagulation 2x Clotting time PT: 760 ng/mL

## EtSO2 -D-Phe-Pro-p-NHCH2 -C6 H4 C(=NH)NH2.HCl [Example 23]
Human Plasma [1]
  Human Plasma Anticoagulation 2x Clotting time TT: 7 ng/mL

## Nc1ccc(CNC(=O)[C@@H]2CCCN2C(=O)[C@@H](CC2CCCCC2)NCC(=O)O)cc1F [Example 77, HO2 CCH2 -D-Cha-Pro-4-NHCH2 -2-F-aniline.HCl]
Human Thrombin
  Kass × 10^6 (L/mole) Human Thrombin: 11 × 10^6 L/mole
Human Plasma [1]
  Human Plasma Anticoagulation 2x Clotting time TT: 53 ng/mL
Human Plasma [2]
  Human Plasma Anticoagulation 2x Clotting time APTT: 1,600 ng/mL
Human Plasma [3]
  Human Plasma Anticoagulation 2x Clotting time PT: 890 ng/mL

## HOOCCH2 -D-Phe-Pro-p-NHCH2 C6 H4 C(NH)NH2.HCl [Example 46]
Human Plasma [1]
  Human Plasma Anticoagulation 2x Clotting time TT: 2. ng/mL

## Cl.N=C(N)C1=CNC(CNC(=O)[C@@H]2CCCN2C(=O)[C@@H](CC2CCCCC2)NCC(=O)O)CC1 (stereo partly drawn) [Example 68, HO2 CCH2 -D-Cha-Pro-2-NHCH2 -5-amidino-5,6-dehydro-piperidine.HCl]
Human Thrombin
  Kass × 10^6 (L/mole) Human Thrombin: 600 × 10^6 L/mole
Human Plasma [1]
  Human Plasma Anticoagulation 2x Clotting time TT: 4. ng/mL
Human Plasma [2]
  Human Plasma Anticoagulation 2x Clotting time APTT: 49 ng/mL
Human Plasma [3]
  Human Plasma Anticoagulation 2x Clotting time PT: 190 ng/mL

## Cl.N=C(N)c1cc(F)c(CNC(=O)[C@@H]2CCCN2C(=O)[C@@H](CC2CCCCC2)NCC(=O)O)c(F)c1 [Example 72, HO2 CCH2 -D-Cha-Pro-4-NHCH2 -3,5-F2 -benzamidine.HCl]
Human Thrombin
  Kass × 10^6 (L/mole) Human Thrombin: 2,300 × 10^6 L/mole
Bovine trypsin
  Kass × 10^6 (L/mole) Trypsin: 280 × 10^6 L/mole
Human Plasma [1]
  Human Plasma Anticoagulation 2x Clotting time TT: 1 ng/mL
Human Plasma [2]
  Human Plasma Anticoagulation 2x Clotting time APTT: 160 ng/mL
Human Plasma [3]
  Human Plasma Anticoagulation 2x Clotting time PT: 160 ng/mL

## Cl.N=C(N)c1ccc(CNC(=O)[C@@H]2CCCN2C(=O)[C@@H](CC2CCCCC2)NCC(=O)O)nn1 [Example 69, HO2 CCH2 -D-Cha-Pro-3-NHCH2 -6-amidinopyridazine.HCl]
Human Thrombin
  Kass × 10^6 (L/mole) Human Thrombin: 340 × 10^6 L/mole
Bovine trypsin
  Kass × 10^6 (L/mole) Trypsin: 3.7 × 10^6 L/mole
Human Plasma [1]
  Human Plasma Anticoagulation 2x Clotting time TT: 5. ng/mL
Human Plasma [2]
  Human Plasma Anticoagulation 2x Clotting time APTT: 110 ng/mL
Human Plasma [3]
  Human Plasma Anticoagulation 2x Clotting time PT: 220 ng/mL

## CCS(=O)(=O)N[C@H](CC1CCCCC1)C(=O)N1CCC[C@H]1C(=O)NCc1ccc(N)cc1F.Cl [Example 82, EtSO2 -D-Cha-Pro-4-NHCH2 -3-F-C6 H3 NH2.HCl]
Human Thrombin
  Kass × 10^6 (L/mole) Human Thrombin: 5.0 × 10^6 L/mole
Human Plasma [1]
  Human Plasma Anticoagulation 2x Clotting time TT: 130 ng/mL
Human Plasma [2]
  Human Plasma Anticoagulation 2x Clotting time APTT: 3,800 ng/mL
Human Plasma [3]
  Human Plasma Anticoagulation 2x Clotting time PT: 3,000 ng/mL

## Cl.N=C(N)c1cc(CNC(=O)[C@@H]2CCCN2C(=O)[C@@H](CC2CCCCC2)NCC(=O)O)cs1 [Example 65, HO2 CCH2 -D-Cha-Pro-4-NHCH2 -2-amidinothiophene.HCl]
Human Thrombin
  Kass × 10^6 (L/mole) Human Thrombin: 4,500 × 10^6 L/mole
Human Plasma [1]
  Human Plasma Anticoagulation 2x Clotting time TT: 1 ng/mL
Human Plasma [2]
  Human Plasma Anticoagulation 2x Clotting time APTT: 48 ng/mL

## N=C(N)C1CCC(CNC(=O)[C@@H]2CCCN2C(=O)[C@@H](CC2CCCCC2)NCC(=O)O)NC1 (stereo partly drawn) [Example 67, HO2 CCH2 -D-Cha-Pro-2-NHCH2 -5-amidinopiperidine.HCl]
Human Thrombin
  Kass × 10^6 (L/mole) Human Thrombin: 11 × 10^6 L/mole
Human Plasma [1]
  Human Plasma Anticoagulation 2x Clotting time TT: 34. ng/mL
Human Plasma [2]
  Human Plasma Anticoagulation 2x Clotting time APTT: 1,800 ng/mL
Human Plasma [3]
  Human Plasma Anticoagulation 2x Clotting time PT: 1,300 ng/mL

## CCS(=O)(=O)N[C@H](CC1CCCCC1)C(=O)N1CCC[C@H]1C(=O)NCc1ccc(C(=N)N)cc1.Cl [Example 80, EtSO2 -D-Cha-Pro-4-NHCH2 C6 H4 C(NH)NH2.HCl]
Bovine trypsin
  Kass × 10^6 (L/mole) Trypsin: 90. × 10^6 L/mole
Human Plasma [1]
  Human Plasma Anticoagulation 2x Clotting time TT: 4 ng/mL
Human Plasma [2]
  Human Plasma Anticoagulation 2x Clotting time APTT: 40 ng/mL
Human Plasma [3]
  Human Plasma Anticoagulation 2x Clotting time PT: 130 ng/mL

## Cl.Nc1ccc(CCNC(=O)[C@@H]2CCCN2C(=O)[C@@H](CC2CCCCC2)NCC(=O)O)cn1 [Example 75, HO2 CCH2 -D-Cha-Pro-5-NHCH2 CH2 -2-aminopyridine.HCl]
Human Thrombin
  Kass × 10^6 (L/mole) Human Thrombin: 0.45 × 10^6 L/mole

## Nc1ccc(CNC(=O)[C@@H]2CCCN2C(=O)[C@@H](CC2CCCCC2)NCC(=O)O)cc1 [Example 62, HO2 CCH2 -D-Cha-Pro-4-NHCH2 C6 H4 NH2.HCl]
Human Thrombin
  Kass × 10^6 (L/mole) Human Thrombin: 7.6 × 10^6 L/mole
Human Plasma [1]
  Human Plasma Anticoagulation 2x Clotting time TT: 54 ng/mL

## 1-Piq-Pro-p-NHCH2 C6 H4 C(NH)NH2.2HCl [Example 18]
Human Plasma [1]
  Human Plasma Anticoagulation 2x Clotting time TT: 7 ng/mL

## CCS(=O)(=O)N[C@@H](C(=O)N1[C@H](C(=O)NCc2ccc(C(=N)N)cc2)C[C@@H]2CCCC[C@@H]21)c1ccccc1 (relative stereo) [Example 44, EtSO2 -Phg-cis-Ohi-p-NHCH2 C6 H4 C(NH)NH2.HCl]
Human Plasma [1]
  Human Plasma Anticoagulation 2x Clotting time TT: 4. ng/mL

## Cl.Nc1cc(CNC(=O)[C@@H]2CCCN2C(=O)[C@@H](CC2CCCCC2)NCC(=O)O)ccn1 [Example 73, HO2 CCH2 -D-Cha-Pro-4-NHCH2 -2-aminopyridine.HCl]
Human Thrombin
  Kass × 10^6 (L/mole) Human Thrombin: 28 × 10^6 L/mole
Human Plasma [1]
  Human Plasma Anticoagulation 2x Clotting time TT: 21 ng/mL
Human Plasma [2]
  Human Plasma Anticoagulation 2x Clotting time APTT: 340 ng/mL
Human Plasma [3]
  Human Plasma Anticoagulation 2x Clotting time PT: 330 ng/mL

## Cl.Nc1ccc(CNC(=O)[C@@H]2CCCN2C(=O)[C@@H](CC2CCCCC2)NCC(=O)O)cn1 [Example 74, HO2 CCH2 -D-Cha-Pro-5-NHCH2 -2-aminopyridine.HCl]
Human Thrombin
  Kass × 10^6 (L/mole) Human Thrombin: 29 × 10^6 L/mole
Human Plasma [1]
  Human Plasma Anticoagulation 2x Clotting time TT: 20 ng/mL
Human Plasma [2]
  Human Plasma Anticoagulation 2x Clotting time APTT: 420 ng/mL
Human Plasma [3]
  Human Plasma Anticoagulation 2x Clotting time PT: 350 ng/mL

## N=C(N)c1ccc(CNC(=O)[C@@H]2CCCN2C(=O)[C@H](NCC(=O)O)C2CCCCC2)cc1 [Example 86, HOOCCH2 -D-Chg-Pro-p-NHCH2 C6 H4 C(NH)NH2.HCl]
Human Plasma [1]
  Human Plasma Anticoagulation 2x Clotting time TT: 4 ng/mL

## Nc1ccc(CCNC(=O)[C@@H]2CCCN2C(=O)[C@@H](CC2CCCCC2)NCC(=O)O)cc1 [Example 63, HO2 CCH2 -D-Cha-Pro-4-NHCH2 CH2 C6 H4 NH2.HCl]
Human Thrombin
  Kass × 10^6 (L/mole) Human Thrombin: 0.31 × 10^6 L/mole
Human Plasma [1]
  Human Plasma Anticoagulation 2x Clotting time TT: 680 ng/mL
